PubChem BioAssay AID330 (DTP/NCI, 2004)
Values joined by “and” are separate entries in the source; they are usually repeats but may differ in a detail not shown here. Equal entries are not always repeated. Toxic doses and inconclusive results are not listed. Rule for the calls: active = survival T/C of 150% or more; inactive = T/C below 125% in these data. Numbered stars: 1 amine (or outer) side, 2 acyl side, 3 side chain; on linkers, the order of the positions; unused ones are H or OH. Peptide text beside a SMILES is read from it. ξ: configuration not given here. ξγGlu = O=C(O)C(CCC(=O)[*:2])N[*:1]

Test system: P388 leukemia ip, CD2F1 mice, survival T/C
Experiment: NCI In Vivo Anticancer Drug Screen. Data for tumor model P388 Leukemia (intraperitoneal) in CD2F1 (CDF1) mice
Conditions: endpoint: median survival time, higher = longer survival
How it was run: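 Mice carrying the transplanted tumor received test compound or vehicle. Survival was recorded in each group, and the value is the treated-group measurement divided by that of the vehicle-treated control group.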

[1] = dose: 60.0 mg/kg/injection, schedule: Q01DX005 (ip), vehicle: saline with Tween-80
[2] = dose: 120.0 mg/kg/injection, schedule: Q01DX005 (ip), vehicle: saline with Tween-80
[3] = dose: 100.0 mg/kg/injection, schedule: Q01DX009 (ip), vehicle: saline with Tween-80
[4] = dose: 100.0 mg/kg/injection, schedule: Q04DX003 (ip), vehicle: saline with Tween-80
[5] = dose: 50.0 mg/kg/injection, schedule: Q01DX005 (ip), vehicle: Klucel (hydroxypropylcellulose) (HPC)
[6] = dose: 100.0 mg/kg/injection, schedule: Q01DX005 (ip), vehicle: Klucel (hydroxypropylcellulose) (HPC)
[7] = dose: 200.0 mg/kg/injection, schedule: Q01DX005 (ip), vehicle: Klucel (hydroxypropylcellulose) (HPC)
[8] = dose: 50.0 mg/kg/injection, schedule: Q01DX005 (ip), vehicle: saline with Tween-80
[9] = dose: 100.0 mg/kg/injection, schedule: Q01DX005 (ip), vehicle: saline with Tween-80
[10] = dose: 200.0 mg/kg/injection, schedule: Q01DX005 (ip), vehicle: saline with Tween-80
[11] = dose: 12.5 mg/kg/injection, schedule: Q01DX009 (ip), vehicle: saline with Tween-80
[12] = dose: 25.0 mg/kg/injection, schedule: Q01DX009 (ip), vehicle: saline with Tween-80
[13] = dose: 50.0 mg/kg/injection, schedule: Q01DX009 (ip), vehicle: saline with Tween-80
[14] = dose: 50.0 mg/kg/injection, schedule: Q01DX009 (ip), vehicle: saline
[15] = dose: 100.0 mg/kg/injection, schedule: Q01DX009 (ip), vehicle: saline
[16] = dose: 200.0 mg/kg/injection, schedule: Q01DX009 (ip), vehicle: saline with Tween-80
[17] = dose: 6.25 mg/kg/injection, schedule: Q01DX009 (ip), vehicle: saline
[18] = dose: 12.5 mg/kg/injection, schedule: Q01DX009 (ip), vehicle: saline
[19] = dose: 25.0 mg/kg/injection, schedule: Q01DX009 (ip), vehicle: saline

Measured: T/C

COC(=O)C1=C2c3cc4c(cc3CCN2C2(O)c3c(ccc(OC)c3OC)C(=O)C12C(=O)OC)OCO4 (stereo unspecified)
inactive: dose: 50.0 mg/kg/injection, schedule: Q04DX002 (ip), vehicle: saline with Tween-80 96 % of control | dose: 100.0 mg/kg/injection, schedule: Q04DX002 (ip), vehicle: saline with Tween-80 103 % of control | dose: 200.0 mg/kg/injection, schedule: Q04DX002 (ip), vehicle: saline with Tween-80 96 % of control

CC1=[N+]([O-])[N+]([O-])=C(C)C1=O
inactive: dose: 6.25 mg/kg/injection, schedule: Q01DX009 (ip), vehicle: Klucel (hydroxypropylcellulose) (HPC) 91 % of control | dose: 12.5 mg/kg/injection, schedule: Q01DX009 (ip), vehicle: Klucel (hydroxypropylcellulose) (HPC) 100 % of control

C[Si](C)(C)CCCNCCNCCC[Si](C)(C)C
inactive: [1] 100 % of control | [2] 100 % of control

O=P(OCc1ccccc1)(N(CCCl)CCCl)N1CCN(P(=O)(OCc2ccccc2)N(CCCl)CCCl)CC1 (stereo unspecified)
inactive: [4] 116 % of control
active: [3] 150 % of control

CC1(C)c2ccccc2-c2nc3ccccc3c(N)c2C1O (stereo unspecified)
inactive: [5] 104 % of control | [6] 100 % of control | [7] 104 % of control

COc1ccc(C2CC(=O)NC2=O)cc1OC (stereo unspecified)
inactive: [1] 96 % of control | [2] 92 % of control | dose: 240.0 mg/kg/injection, schedule: Q01DX005 (ip), vehicle: saline with Tween-80 97 % of control

Oc1ccc(O)c2c(O)c3ccccc3c(O)c12
inactive: [8] 102 % of control | [9] 107 % of control | [10] 93 % of control

CC(Br)C(=O)c1ccc2cc(Br)c3ccccc3c2c1 (stereo unspecified)
inactive: [11] 100 % of control | [12] 106 % of control | [13] 116 % of control

COc1cc(C2c3cc(O)c(OC)cc3CC(C(N)=O)C2CO)ccc1O (stereo unspecified)
inactive: [8] 100 % of control | [9] 100 % of control | [10] 98 % of control

NC(CCC(=O)NCC(=O)NCC(=O)O)C(=O)O (stereo not drawn) (ξγGlu-Gly-Gly-OH)
inactive: dose: 50.0 mg/kg/injection, schedule: Q01DX005 (ip), vehicle: saline 100 % of control | dose: 100.0 mg/kg/injection, schedule: Q01DX005 (ip), vehicle: saline 97 % of control | dose: 200.0 mg/kg/injection, schedule: Q01DX005 (ip), vehicle: saline 102 % of control

CCOc1ccc(C(c2ccc(OCC)cc2)C(C)C)cc1
inactive: dose: 50.0 mg/kg/injection, schedule: Q01DX009 (ip), vehicle: suspension in saline 108 % of control | dose: 100.0 mg/kg/injection, schedule: Q01DX009 (ip), vehicle: suspension in saline 100 % of control | dose: 200.0 mg/kg/injection, schedule: Q01DX009 (ip), vehicle: suspension in saline 105 % of control

NCc1ccccc1
inactive: [14] 103 % of control and 95 % of control | [15] 101 % of control and 109 % of control

N#Cc1c(=O)[nH]c(=O)n2c1[nH]c1ccccc12
inactive: dose: 15.0 mg/kg/injection, schedule: Q01DX005 (ip), vehicle: saline with Tween-80 102 % of control | dose: 30.0 mg/kg/injection, schedule: Q01DX005 (ip), vehicle: saline with Tween-80 104 % of control | [1] 105 % of control and 88 % of control

COC1/C=C\CC2=CCCC=C2CC1 (stereo unspecified)
inactive: dose: 25.0 mg/kg/injection, schedule: Q01DX009 (sc), vehicle: olive oil, sesame oil, peanut oil 100 % of control | dose: 50.0 mg/kg/injection, schedule: Q01DX009 (sc), vehicle: olive oil, sesame oil, peanut oil 97 % of control | dose: 100.0 mg/kg/injection, schedule: Q01DX009 (sc), vehicle: olive oil, sesame oil, peanut oil 97 % of control | dose: 200.0 mg/kg/injection, schedule: Q01DX009 (sc), vehicle: olive oil, sesame oil, peanut oil 95 % of control

CNC(=O)c1ccccc1O
inactive: [13] 103 % of control | [3] 103 % of control | [16] 95 % of control | dose: 400.0 mg/kg/injection, schedule: Q01DX009 (ip), vehicle: saline with Tween-80 90 % of control

CN1CCN(CCCN(c2cccc(C(F)(F)F)c2)c2cccc(C(F)(F)F)c2)CC1
inactive: dose: 50.0 mg/kg/injection, schedule: Q01DX001 (ip), vehicle: Klucel (hydroxypropylcellulose) (HPC) 100 % of control | dose: 100.0 mg/kg/injection, schedule: Q01DX001 (ip), vehicle: Klucel (hydroxypropylcellulose) (HPC) 98 % of control | dose: 200.0 mg/kg/injection, schedule: Q01DX001 (ip), vehicle: Klucel (hydroxypropylcellulose) (HPC) 92 % of control

CCOC(=O)C1n2c(=O)n(-c3ccc(Cl)cc3)c(=O)n21
inactive: [5] 96 % of control | [6] 87 % of control | [7] 92 % of control

O=C1/C(=C\c2ccccc2O)Cc2ccccc21
inactive: [5] 107 % of control | [6] 103 % of control | [7] 91 % of control

Nc1nc(N)c2nc(/C(Cl)=N/O)cnc2n1
inactive: dose: 20.0 mg/kg/injection, schedule: Q01DX009 (ip), vehicle: saline 108 % of control | dose: 40.0 mg/kg/injection, schedule: Q01DX009 (ip), vehicle: saline 105 % of control | dose: 80.0 mg/kg/injection, schedule: Q01DX009 (ip), vehicle: saline 103 % of control

COc1ccc(CC(N)c2ccccc2)cc1 (stereo unspecified)
inactive: [14] 96 % of control | [15] 98 % of control

S=C([S][Sn]([c]1ccccc1)([c]1ccccc1)[c]1ccccc1)N1CCCCC1
inactive: dose: 3.12 mg/kg/injection, schedule: Q01DX009 (ip), vehicle: saline with Tween-80 99 % of control | dose: 6.25 mg/kg/injection, schedule: Q01DX009 (ip), vehicle: saline with Tween-80 104 % of control | [11] 107 % of control | [12] 112 % of control

O=S(=O)(O)O.[O]=[V]
inactive: [17] 90 % of control | [18] 86 % of control | dose: 12.5 mg/kg/injection, schedule: Q04DX003 (ip), vehicle: saline 100 % of control | [19] 90 % of control | dose: 25.0 mg/kg/injection, schedule: Q04DX003 (ip), vehicle: saline 100 % of control

C[CH2][Ge]([Cl])([CH2]C)[c]1cc[c]([Ge]([Cl])([CH2]C)[CH2]C)cc1
inactive: [5] 98 % of control | [6] 96 % of control | [7] 99 % of control

O=[N+]([O-])c1ccc(CCCl)cc1
inactive: [13] 99 % of control | [3] 88 % of control | [16] 90 % of control

CN(C)CCN(C)CCN1C(=O)c2ccccc2C1=O
inactive: dose: 100.0 mg/kg/injection, schedule: Q04DX002 (ip), vehicle: saline 102 % of control | dose: 200.0 mg/kg/injection, schedule: Q04DX002 (ip), vehicle: saline 100 % of control | dose: 400.0 mg/kg/injection, schedule: Q04DX002 (ip), vehicle: saline 100 % of control

O=NN(CCCl)C(=O)Nc1ccccc1
active: dose: 0.5 mg/kg/injection, schedule: Q04DX003 (ip), vehicle: saline with Tween-80 200 % of control | dose: 1.25 mg/kg/injection, schedule: Q04DX003 (ip), vehicle: saline with Tween-80 150 % of control | dose: 2.5 mg/kg/injection, schedule: Q04DX003 (ip), vehicle: saline with Tween-80 179 % of control | dose: 5.0 mg/kg/injection, schedule: Q04DX003 (ip), vehicle: saline with Tween-80 233 % of control | [17] 227 % of control | dose: 12.5 mg/kg/injection, schedule: Q04DX003 (ip), vehicle: saline with Tween-80 250 % of control
inactive: [18] 118 % of control | [19] 95 % of control | dose: 25.0 mg/kg/injection, schedule: Q04DX003 (ip), vehicle: saline with Tween-80 91 % of control

CC(O)CC1=Nc2c(nc(N)[nH]c2=O)N(C)C1 (stereo unspecified)
inactive: [4] 98 % of control | dose: 200.0 mg/kg/injection, schedule: Q04DX003 (ip), vehicle: saline with Tween-80 97 % of control | dose: 400.0 mg/kg/injection, schedule: Q04DX003 (ip), vehicle: saline with Tween-80 113 % of control

CN(C)NC(=O)[S-].CN(C)NC(=O)[S-].[Ni]
inactive: dose: 12.5 mg/kg/injection, schedule: Q01DX001 (ip), vehicle: saline with Tween-80 103 % of control | dose: 25.0 mg/kg/injection, schedule: Q01DX001 (ip), vehicle: saline with Tween-80 111 % of control | dose: 50.0 mg/kg/injection, schedule: Q01DX001 (ip), vehicle: saline with Tween-80 106 % of control and 96 % of control | dose: 100.0 mg/kg/injection, schedule: Q01DX001 (ip), vehicle: saline with Tween-80 109 % of control
